According to US20250382290A1, “SALTS OF SOS1 INHIBITORS” (MIRATI THERAPEUTICS, INC., priority 2022, published 2025):

Test system: pERK (KRas-mediated, SOS1-dependent) in MKN1 or H358 cells
Experiment: cells
Conditions: read-out: IC50 (pERK inhibition)
Method: Assay day 1, cells were dosed with the compounds of the invention with a 10 μm starting concentration and serially diluted 3× for a total of 9 concentrations. The cells were incubated for approximately 0.5-1 hour with the compounds solubilized in DMSO at 37° C. Cells were immediately fixed by adding 50 μL of 4% formaldehyde to all wells in a fume hood and the plates were incubated for 20 minutes at room temperature. The formaldehyde was discarded from the plates and 150 μL of ice-cold methanol was added to permeabilize the cells for 10 minutes at −20° C. The methanol was discarded from each of the plates and any liquid remaining in the plate by tapping the plate against paper towels. […] The plates were incubated overnight at 4° C. on a shaker.
On Assay day 2, the primary antibody solution was removed. […] The secondary antibody solution as removed and each plate was washed with PBST 3× times. Any liquid remaining was discarded and the plate was imaged using the Licor Odyssey machine according to the manufacturer's instruction, using a set focus length at 3 mm and both 800 nm and 700 nm filters. The GAPDH normalized scan values for each well were divided by the average of vehicle wells to get the % of pERK inhibition. The IC50 values were then calculated with the Graph pad Prism software.

In the case of `Cc1c(C#N)cccc1[C@@H](C)Nc1nnc(C)c2cnc(N3CCOCC3)cc12` [Example 12-10, (R)-2-methyl-3-(1-((4-methyl-7-morpholinopyrido[3,4-d]pyridazin-1-yl)amino)ethyl)benzonitrile], the IC50 is reported as 46 nM.
